Where a name gives a salt, the structure may show the parent alone. Read-outs that look alike come from different tables or passages of the source.
What was measured:
[1] = system: murine 6.5 cells (inner mitochondrial membrane potential); assay: Mitochondrial membrane potential by TMRM fluorescence assay; format: cell-based, mouse; conditions: TMRM 100 nM 20 min, control peak 403, syrosingopine pre-incubation 4 h (highest amount), FCCP pre-treatment 1 h (FIG. 11)
Experimental: Murine 6.5 cells were treated with TMRM (panels 1-6), and in addition pre-incubated with FCCP (panel 2), syrosingopine at 0.1 μM (panel 3), 0.5 μM (panel 4), 2 μM (panel 5) or at 5 μM (panel 6) and fluorescence intensity was measured. Thin lines: fluorescence intensity of control cells or FCCP-treated cells (panel 2). Heavy lines indicate cells pre-incubated additionally with syrosingopine (panels 3-6). X-axis indicates fluorescence intensity, Y-axis indicates relative cell numbers.
Murine 6.5 cells were treated for 20 min with the potentiometric fluorescent dye TMRM (tetramethylrhodamine methyl ester, AbD Serotec, 100 nM) and the fluorescence intensity was measured at 575 nm emission after excitation at 488 nm using a flow cytometer (CellLabQuanta, Beckman Coulter). This dye accumulates in the mitochondrial matrix when the inner membrane potential is more positive outside due to the extrusion of protons. […] The effect of syrosingopine was assessed by pre-incubating cells with increasing concentrations of syrosingopine for 4 h as indicated, followed by TMRM staining.

RPMI8226 cells [2] = assay: Apoptosis assay (annexin V / propidium iodide FACS), RPMI8226; format: cell-based, human; conditions: 2 μM syrosingopine, 1 mM metformin, singly or combined, 3 days (FIG. 3)
Experimental: (§1) OPM2 and RPM18226 cells were seeded at a density of 100,000 cells/5 ml medium with addition of compounds. […] RPM18226: 2 μM syrosingopine (S), 1 mM metformin (M). […] Annexin V is an apoptotic marker and was detected using a FITC-coupled antibody on the FL1-channel. Propidium iodide (PI) exclusion staining for vital cells was detected simultaneously on the FL3-channel. For each measurement, the PI and annexin V negative cells represent the viable cell population (white bars). Early apoptotic cells are PI-negative, annexin V-positive (hatched bars) and late apoptotic cells are PI-positive, annexin V-positive (black bars). Bars are plotted on the Y-axis as a percentage of the total cell population.
(§2) Apoptosis was determined by Annexin V-FITC (Invitrogen) and propidium iodide counter-staining, and cells were analysed by FACS to distinguish between viable/early apoptotic/late apoptotic cell sub-populations. Cells were seeded at a density of 100,000 cells/5 ml medium with addition of compounds as indicated. 500 μl of culture was harvested after 3 days and the cells were washed and stained with PI/Annexin V before FACs analysis.

OPM2 cells [3] = assay: Apoptosis assay (annexin V / propidium iodide FACS), OPM2; format: cell-based, human; conditions: 5 μM syrosingopine, 2 mM metformin, singly or combined, 3 days (FIG. 3)
Experimental: as §1, §2

RPMI8226 cells [4] = assay: AlamarBlue cell proliferation assay, RPMI8226; format: cell-based, human; conditions: syrosingopine titration, metformin 5 mM, 3 days
Experimental: (§3) AlamarBlue conversion cell proliferation assay. […] All data points were performed in tripliclate.

Jurkat cells = assay: AlamarBlue cell proliferation assay, Jurkat; format: cell-based, human; conditions: syrosingopine titration, metformin 5 mM, 3 days (FIG. 1D)
Experimental: as §3

OPM2 cells [5] = assay: AlamarBlue cell proliferation assay, OPM2; format: cell-based, human; conditions: for growth inhibition, combined versus each compound singly: syrosingopine titration, metformin 5 mM, 3 days (FIG. 1B)
Experimental: as §3

mouse mast cell line 6.5 [6] = assay: AlamarBlue cell proliferation assay, mouse mast cell line 6.5; format: cell-based
Experimental: as §3

K562 cells = assay: AlamarBlue cell proliferation assay, K562; format: cell-based, human; conditions: syrosingopine titration, metformin 5 mM, 3 days (FIG. 1E)
Experimental: as §3

[7] = system: 6.5 cell tumors in DBA mice; conditions: mouse, in vivo
Experimental: Drug treatment commenced when tumors reached 100 mm^2 in size. Mice were separated into treatment groups and injected intra-peritoneally with PBS (horizontal bars), syrosingopine (S, filled diamonds, 2 mg/kg body weight), metformin (M, filled triangles, 250 mg/kg body weight) and metformin plus syrosingopine (S+M, crossed squares) daily for 15 days. Mice were sacrificed when tumor size became excessive (day 15) and tumors were dissected for measurement. (A) Chart showing tumor area (in mm^2) measured over the course of the treatment, d=days. (B) Mean body weight (g) of the mice at the time of sacrifice. Figures (n) above each bar indicate the number of mice per treatment group.
4×10^56.5 cells were injected in 150 μl of PBS into the flanks of immuno-compatible DBA mice. Tumor progression was monitored and treatment was started when tumor area reached 100 mm^2 in size. Mice were injected intra-peritoneally daily with metformin (250 mg/kg body weight), syrosingopine (2 mg/kg body weight) or combined for 15 days before being sacrificed for tumor tissue measurements.

[8] = system: human peripheral blood leukocytes; assay: Phytohaemagglutinin-stimulated T cell proliferation; format: cell-based; conditions: PHA 10 μg/ml; day 3; syrosingopine titration with or without metformin 4 mM (FIG. 7, right)
Experimental: Human peripheral blood leukocytes were cultured in presence or absence of phytohaemagglutinin.
Normal human buffy coat cells were obtained from a local blood donation center in accordance with the ethical guidelines. 80 ml of blood was diluted with 200 ml of Iscove's medium and overlayed on a Ficoll gradient. The gradient was centrifuged at 1400×g for 5 minutes to separate the leukocyte fraction from erythrocytes. Cells were plated on coated tissue culture dishes for 1 hour to remove adherent cells, and the remaining suspension cells were collected by centrifugation and counted with a haemocytometer. 50,000 cells were seeded per well in 96-well dishes and compounds were added according to the various treatment regimes to a final medium volume of 150 μl. For stimulation, phytohemagglutinin was added to a final concentration of 10 μg/ml. At day 3, proliferation was determined by AlamarBlue assay.

cancer test cell lines = assay: Interaction of rauwolfia-related compounds with metformin; format: cell-based
From the text: 6.5 cells show many features of oncogenic transformation such as loss of growth-factor (IL3) dependence and signaling pathway addiction. […]. These cells display exquisite sensitivity to many clinical drugs. […].

HL60 cells = format: cell-based, human; conditions: oligomycin at a concentration below 1 nM, 3 days (FIG. 10B)
Experimental: as §3

mouse mast cell line 6.5 [9] = system: mouse mast cell line 6.5
[10] = 6.5 cells, agent at fixed, non- or minimally toxic concentration (FIG. 8) with increasing syrosingopine, 3 days

`CCOC(=O)Oc1c(OC)cc(C(=O)O[C@@H]2C[C@@H]3CN4CCc5c([nH]c6cc(OC)ccc56)[C@H]4C[C@@H]3[C@H](C(=O)OC)[C@H]2OC)cc1OC` [syrosingopine] was tested, and the TMRM fluorescence peak [1] was 955 arbitrary units, the “apoptotic induction (annexin V / PI)” value (RPMI8226 cells [2]) was “No apoptotic induction” and the “apoptotic induction (annexin V / PI)” value (OPM2 cells [3]) was “No apoptotic induction”. For the same compound, the “growth inhibition, combined versus each compound singly” value (RPMI8226 cells [4]) was “only a marginal effect”, the “growth inhibition, combined versus each compound singly” value (Jurkat cells) was “only a marginal effect” and the “growth inhibition, combined versus each compound singly” value (OPM2 cells [5]; OPM2) was “only a marginal effect”. For the same compound, the “inhibition of growth, syrosingopine alone” value (mouse mast cell line 6.5 [6]; 6.5 cells, syrosingopine titration without metformin, 3 days (FIG. 1A)) was “virtually non-inhibitory”, the “growth inhibition, combined versus each compound singly” value (K562 cells) was “only a marginal effect” and the “signs of overt toxicity” value ([7]; DBA) was “no significant difference in body weight between the treatment groups (FIG. 5B) or any signs of overt toxicity”. The “body weight at sacrifice” value [7] was “no significant difference in body weight” and the “inhibition of PHA-stimulated proliferation” value [8] was “considerably less so”.
For `COC(=O)[C@H]1[C@H]2C[C@@H]3c4[nH]c5cc(OC)ccc5c4CCN3C[C@H]2C[C@@H](OC(=O)c2cc(OC)c(OC)c(OC)c2)[C@@H]1OC` [reserpine], the interaction with metformin (cancer test cell lines) was “do not show significant interaction”, the interaction with metformin (OPM2 cells [5]; OPM2 cells, reserpine over a range of concentrations, metformin 5 mM (FIG. 4)) was “No interaction” and the interaction with metformin (mouse mast cell line 6.5 [6]; 6.5 cells, reserpine over a range of concentrations, metformin 5 mM (FIG. 4)) was “No interaction”.
With `N=C(N)NC(=N)NCCc1ccccc1` [phenformin, 1-(diaminomethylidene)-2-(2-phenylethyl)guanidine] the “growth inhibition, phenformin alone” value (mouse mast cell line 6.5 [6]; 6.5 cells, concentrations up to 10 μM, 3 days (FIG. 6, left)) was “no growth inhibition” and the synergy with syrosingopine (mouse mast cell line 6.5 [6]; 6.5 cells, phenformin 10 μM combined with increasing concentrations of syrosingopine, 3 days (FIG. 6, right)) was “strong synergistic effect”.
In the case of Stavudine, the “synergistic killing with syrosingopine” value (mouse mast cell line 6.5 [6]; [10]) is reported as “induced synergistic killing”.
For `COC(=O)C1=CO[C@@H](C)[C@H]2CN3CCc4c([nH]c5ccccc45)[C@@H]3C[C@H]12` [ajmalicine], the interaction with metformin (cancer test cell lines) was “do not show significant interaction”.
In the case of `N#CC(C#N)=NNc1ccc(OC(F)(F)F)cc1` [FCCP, Carbonyl cyanide-p-trifluoromethoxyphenylhydrazone], the TMRM fluorescence peak [1] is reported as 42 arbitrary units and the “synergistic killing with syrosingopine” value (mouse mast cell line 6.5 [6]) is reported as “induced synergistic killing”.
`COc1ccc2c3c([nH]c2c1)[C@H]1C[C@H]2[C@H](C[C@@H](O)[C@H](OC)[C@H]2C(=O)O)CN1CC3` [reserpinnic acid] was tested, and the interaction with metformin (cancer test cell lines) was “do not show significant interaction”.
For `CN(C)C(=N)NC(=N)N` [metformin, 3-(diaminomethylidene)-1,1-dimethylguanidine hydrochloride], the “apoptotic induction (annexin V / PI)” value (RPMI8226 cells [2]) was “No apoptotic induction”, the “apoptotic induction (annexin V / PI)” value (OPM2 cells [3]) was “No apoptotic induction” and the “growth inhibition, combined versus each compound singly” value (RPMI8226 cells [4]) was “only a marginal effect”. For the same compound, the “growth inhibition, combined versus each compound singly” value (Jurkat cells) was “only a marginal effect”, the “growth inhibition, combined versus each compound singly” value (OPM2 cells [5]; OPM2) was “only a marginal effect” and the inhibition at 5000 µM (mouse mast cell line 6.5 [6]; Mus musculus, Mast cell, 72 h, 6.5 cells, metformin alone at 5 mM, 3 days (FIG. 1A), read-out: inhibition of growth) was 20%. For the same compound, the “growth inhibition, combined versus each compound singly” value (K562 cells) was “only a marginal effect” and the “body weight at sacrifice” value [7] was “no significant difference in body weight”.
In the case of `CC[C@@H]1/C=C/C=C/C[C@H](C)C(O)[C@](C)(O)C(=O)[C@H](C)[C@@H](O)[C@H](C)C(=O)[C@H](C)[C@@H](O)[C@H](C)/C=C/C(=O)O[C@H]2[C@@H](C)[C@@H](CC1)O[C@@]1(CC[C@@H](C)[C@@H](C[C@H](C)O)O1)[C@@H]2C` (stereo partly drawn) [oligomycin, Oligomycin], the “killing in combination with syrosingopine” value (HL60 cells) is reported as “kills human cancer lines”, the “killing in combination with syrosingopine” value (OPM2 cells [5]; OPM2, oligomycin at a concentration below 1 nM, 3 days (FIG. 10C)) is reported as “kills human cancer lines” and the “toxicity of the mitochondrial inhibitor alone” value (mouse mast cell line 6.5 [6]; 6.5 cells, absence of syrosingopine, concentrations employed for synergistic killing, 3 days (FIG. 9)) is reported as “without toxic effect”. The “synergistic killing with syrosingopine” value (mouse mast cell line 6.5 [6]; [10]) was “induced synergistic cell killing”.
In the case of `COC(=O)[C@H]1[C@H]2C[C@H]3c4[nH]c5ccccc5c4CCN3C[C@H]2CC[C@@H]1O` [rauwolscine HCl], the interaction with metformin (cancer test cell lines) is reported as “do not show significant interaction”.
For `O=C([O-])CC(=O)[O-].[Na+].[Na+]` [sodium malonate, Sodium malonate], the “synergistic killing with syrosingopine” value (mouse mast cell line 6.5 [6]; [10]) was “Synergistic killing”.
`COC(=O)[C@H]1[C@H]2C[C@H]3c4[nH]c5ccccc5c4CCN3C[C@@H]2CC[C@@H]1O.Cl` [corynanthine HCl] was tested, and the interaction with metformin (cancer test cell lines) was “do not show significant interaction”.
In the case of `COC(=O)[C@@H]1[C@H]2C[C@H]3c4[nH]c5ccccc5c4CCN3C[C@@H]2CC[C@@H]1O` [yohimbine HCl], the interaction with metformin (cancer test cell lines) is reported as “do not show significant interaction”.
In the case of `N#CC(=C(/N)Sc1ccccc1N)/C(C#N)=C(\N)Sc1ccccc1N` [U0126], the “sensitivity of 6.5 cells to inhibitor” value (mouse mast cell line 6.5 [9]) is reported as “sensitive to nanomolar concentrations”.
With `CCCCCC[C@H]1C(=O)O[C@H](C)[C@H](NC(=O)c2cccc(NC=O)c2O)C(=O)O[C@@H](C)[C@@H]1OC(=O)CC(C)C` [antimycin A, Antimycin A] the “synergistic killing with syrosingopine” value (mouse mast cell line 6.5 [6]) was “Synergistic killing”.
With `O=C(CC(=O)C(F)(F)F)c1cccs1` [TTFA, 2-Thenoyltrifluoroacetone] the “synergistic killing with syrosingopine” value (mouse mast cell line 6.5 [6]; [10]) was “Synergistic killing”.
With `COC(=O)[C@H]1[C@H]2C[C@@H]3c4[nH]c5cc(OC)ccc5c4CCN3C[C@H]2C[C@@H](OC(=O)/C=C/c2cc(OC)c(OC)c(OC)c2)[C@@H]1OC` [rescinnnamine] the interaction with metformin (cancer test cell lines) was “do not show significant interaction”.
In the case of `O=C(O)[C@@H]1[C@H]2C[C@H]3c4[nH]c5ccccc5c4CCN3C[C@@H]2CC[C@@H]1O` [yohimbinic acid], the interaction with metformin (cancer test cell lines) is reported as “do not show significant interaction”.

— patent publication US8993587B2, “Combination of syrosingopine and mitochondrial inhibitors for the treatment of cancer and immunosuppression” (Universitat Basel, priority 2011, dated 2015)
